According to ChEMBL document CHEMBL4665679, “Ocular Disease Therapeutics: Design and Delivery of Drugs for Diseases of the Eye” (J Med Chem, 2020):
≈ marks a conversion by molar mass, not a printed value. One block for each compound: values may come before it.

Tests used:
[1] = Equilibrium solubility in pH 6.8 potassium phosphate buffer incubated for 16 hrs by shake flask method; assay type: physicochemical
[2] = molecular target: Complement C5 (Homo sapiens, UniProt P01031); experiment: Inhibition of C5 complement protein in 2% human serum incubated for 15 mins; assay type: cell-free
Sequence of Complement C5 (P01031 19-673 limits assumed): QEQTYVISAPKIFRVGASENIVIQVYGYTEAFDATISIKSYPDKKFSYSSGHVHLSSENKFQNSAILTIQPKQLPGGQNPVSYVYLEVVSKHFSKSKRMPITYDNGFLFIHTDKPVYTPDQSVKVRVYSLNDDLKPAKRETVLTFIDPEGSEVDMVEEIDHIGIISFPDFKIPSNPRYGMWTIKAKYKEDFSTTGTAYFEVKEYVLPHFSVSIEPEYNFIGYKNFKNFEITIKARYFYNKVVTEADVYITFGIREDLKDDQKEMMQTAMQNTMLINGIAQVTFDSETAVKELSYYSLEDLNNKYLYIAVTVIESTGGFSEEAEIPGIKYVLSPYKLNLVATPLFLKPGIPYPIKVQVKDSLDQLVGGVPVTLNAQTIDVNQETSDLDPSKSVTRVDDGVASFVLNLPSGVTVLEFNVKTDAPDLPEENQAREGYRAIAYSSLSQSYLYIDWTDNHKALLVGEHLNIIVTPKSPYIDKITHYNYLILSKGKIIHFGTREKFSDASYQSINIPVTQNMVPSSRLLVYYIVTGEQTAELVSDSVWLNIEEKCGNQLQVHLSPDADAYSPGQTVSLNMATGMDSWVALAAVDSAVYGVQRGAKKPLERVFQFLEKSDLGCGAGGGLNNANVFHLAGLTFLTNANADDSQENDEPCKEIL
Sequence of Complement C5 (P01031 678-1676 limits assumed): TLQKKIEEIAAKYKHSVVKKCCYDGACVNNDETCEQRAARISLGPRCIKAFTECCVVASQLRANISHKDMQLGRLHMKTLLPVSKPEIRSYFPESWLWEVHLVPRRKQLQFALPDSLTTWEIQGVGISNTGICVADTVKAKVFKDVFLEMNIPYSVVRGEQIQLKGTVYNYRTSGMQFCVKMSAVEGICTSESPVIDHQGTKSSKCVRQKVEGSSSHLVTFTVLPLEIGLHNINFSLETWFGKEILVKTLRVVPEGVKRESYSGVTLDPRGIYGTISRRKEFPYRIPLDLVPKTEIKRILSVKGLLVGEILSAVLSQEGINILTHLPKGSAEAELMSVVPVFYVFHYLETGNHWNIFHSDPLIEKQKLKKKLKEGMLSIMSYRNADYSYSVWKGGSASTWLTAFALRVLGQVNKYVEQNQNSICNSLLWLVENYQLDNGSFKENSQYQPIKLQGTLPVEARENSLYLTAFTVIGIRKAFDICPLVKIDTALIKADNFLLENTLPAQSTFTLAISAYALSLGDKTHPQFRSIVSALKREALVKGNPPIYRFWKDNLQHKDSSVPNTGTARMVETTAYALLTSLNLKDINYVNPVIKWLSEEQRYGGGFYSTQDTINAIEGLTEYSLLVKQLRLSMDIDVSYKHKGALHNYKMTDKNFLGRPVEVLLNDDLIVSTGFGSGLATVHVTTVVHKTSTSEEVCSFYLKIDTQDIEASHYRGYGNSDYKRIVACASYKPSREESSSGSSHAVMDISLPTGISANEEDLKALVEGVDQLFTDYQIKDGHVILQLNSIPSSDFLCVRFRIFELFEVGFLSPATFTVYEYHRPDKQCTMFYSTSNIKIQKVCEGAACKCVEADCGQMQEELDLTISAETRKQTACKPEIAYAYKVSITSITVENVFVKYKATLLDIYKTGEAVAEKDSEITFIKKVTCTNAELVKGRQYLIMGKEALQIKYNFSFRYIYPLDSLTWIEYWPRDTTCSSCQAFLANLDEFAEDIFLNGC

[3] = Reduction of intraocular pressure in human at 0.1% administered topically to the eye and measured at 4 hr post-instillation during phase 1 clinical trial by tonometry; assay type: functional
[4] = Reduction of intraocular pressure in human at 0.2%, OU administered twice daily for 8 weeks and measured every 4 weeks at 8 hrs post instillation during phase 2 clinical trial by tonometry; assay type: functional
[5] = Reduction of intraocular pressure in human at 0.4%, OU administered twice daily for 8 weeks cotreated with timolol and measured every 2 weeks at 2 hrs post-instillation by tonometry; assay type: functional
[6] = Reduction of intraocular pressure in human at 0.1%, OU administered twice daily for 8 weeks and measured every 4 weeks at 8 hrs post instillation during phase 2 clinical trial by tonometry; assay type: functional
[7] = Reduction of intraocular pressure in human at 0.4%, OU administered twice daily for 8 weeks cotreated-with-latanoprost and measured every 2 weeks at 2 hrs post-instillation by tonometry; assay type: functional
[8] = Reduction of intraocular pressure in human at 0.4%, OU administered twice daily for 52 weeks and measured every 2 weeks for first month and then every 4 weeks by tonometry; assay type: functional
[9] = Reduction of intraocular pressure in human at 0.4%, OU administered twice daily for 8 weeks cotreated with timolol and measured every 2 weeks by tonometry; assay type: functional
[10] = Reduction of intraocular pressure in human at 0.4%, OU administered twice daily for 52 weeks and measured every 2 weeks for first month and then every 4 weeks at 2 hr post-instillation by tonometry; assay type: functional
[11] = Reduction of intraocular pressure in human at 0.4%, OU administered twice daily for 8 weeks and measured every 4 weeks at 8 hrs post instillation during phase 2 clinical trial by tonometry; assay type: functional
[12] = molecular target: T1, Complement factor D (Homo sapiens, UniProt P00746); experiment: Inhibition of CFD in 50% human whole blood assessed as reduction in alternate complement pathway-mediated MAC formation pre-incubated for 15 mins followed by zymosan suspension addition and measured after 40 mins by ELISA; assay type: tissue-based
T1 sequence (P00746 whole entry): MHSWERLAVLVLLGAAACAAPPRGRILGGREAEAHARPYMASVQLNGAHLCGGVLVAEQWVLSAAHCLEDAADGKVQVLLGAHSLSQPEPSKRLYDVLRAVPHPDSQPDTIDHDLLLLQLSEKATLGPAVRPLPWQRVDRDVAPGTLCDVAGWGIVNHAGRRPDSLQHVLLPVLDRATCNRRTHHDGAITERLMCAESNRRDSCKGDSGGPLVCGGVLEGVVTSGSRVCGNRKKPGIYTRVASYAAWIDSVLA

[13] = Solubility of compound by NMR analysis; assay type: physicochemical
[14] = Inhibition of N-terminal His-tagged human KLK7 (37 to 253 residues) Y180R mutant expressed in Escherichia coli BL21(DE3) using Ac-Glu-Phe-Lys-Pro-Ile-Leu-Trp-Arg-Leu-Gly-Cys(PT14)-Glu-NH2 as substrate preincubated for 1 hr followed by substrate addition by fluorescence-lifetime assay
[15] = molecular target: T1, Complement factor D; experiment: Binding affinity to human CFD at 100 uM by WaterLOGSY NMR analysis
[16] = Half life in pig cornea by HPLC analysis; assay type: ADME, tissue-based, Sus scrofa; details: in vivo
[17] = Half life in Beagle dog cornea by HPLC analysis; assay type: ADME, tissue-based, Canis lupus familiaris; details: in vivo
[18] = Half life in human cornea by HPLC analysis; assay type: ADME, tissue-based
[19] = Half life in cynomolgus monkey cornea by HPLC analysis; assay type: ADME, tissue-based, Macaca fascicularis; details: in vivo
[20] = Half life in Dutch Belted rabbit cornea by HPLC analysis; assay type: ADME, tissue-based, Oryctolagus cuniculus; details: in vivo
[21] = molecular target: T1, Complement factor D; experiment: Inhibition of recombinant human CFD catalytic domain (G24 to A253 residues) expressed in Escherichia coli (Rosetta) using Z-Lys-thiobenzyl and 2,4-dinitrobenzenesulfonyl-2,7-[…]-fluorecein as substrate preincubated for 1 hr followed by substrate addition by spectrofluorimetric method
[22] = molecular target: T1, Complement factor D; experiment: Inhibition of CFD in human RBC model of anti-CD55/anti-CD59-induced paroxysmal nocturnal hemoglobinuria assessed as reduction in complement fragment C3 deposition by FACS analysis; assay type: tissue-based
[23] = molecular target: T2, Nitric oxide synthase, inducible (Mus musculus, UniProt P29477); experiment: Inhibition of LPS/IFN-gamma induced NO-dependent iNOS activity in mouse RAW 264.7 cells incubated for 16 hrs by Griess reagent based assay; assay type: cell-based, RAW264.7
T2 sequence (P29477 whole entry): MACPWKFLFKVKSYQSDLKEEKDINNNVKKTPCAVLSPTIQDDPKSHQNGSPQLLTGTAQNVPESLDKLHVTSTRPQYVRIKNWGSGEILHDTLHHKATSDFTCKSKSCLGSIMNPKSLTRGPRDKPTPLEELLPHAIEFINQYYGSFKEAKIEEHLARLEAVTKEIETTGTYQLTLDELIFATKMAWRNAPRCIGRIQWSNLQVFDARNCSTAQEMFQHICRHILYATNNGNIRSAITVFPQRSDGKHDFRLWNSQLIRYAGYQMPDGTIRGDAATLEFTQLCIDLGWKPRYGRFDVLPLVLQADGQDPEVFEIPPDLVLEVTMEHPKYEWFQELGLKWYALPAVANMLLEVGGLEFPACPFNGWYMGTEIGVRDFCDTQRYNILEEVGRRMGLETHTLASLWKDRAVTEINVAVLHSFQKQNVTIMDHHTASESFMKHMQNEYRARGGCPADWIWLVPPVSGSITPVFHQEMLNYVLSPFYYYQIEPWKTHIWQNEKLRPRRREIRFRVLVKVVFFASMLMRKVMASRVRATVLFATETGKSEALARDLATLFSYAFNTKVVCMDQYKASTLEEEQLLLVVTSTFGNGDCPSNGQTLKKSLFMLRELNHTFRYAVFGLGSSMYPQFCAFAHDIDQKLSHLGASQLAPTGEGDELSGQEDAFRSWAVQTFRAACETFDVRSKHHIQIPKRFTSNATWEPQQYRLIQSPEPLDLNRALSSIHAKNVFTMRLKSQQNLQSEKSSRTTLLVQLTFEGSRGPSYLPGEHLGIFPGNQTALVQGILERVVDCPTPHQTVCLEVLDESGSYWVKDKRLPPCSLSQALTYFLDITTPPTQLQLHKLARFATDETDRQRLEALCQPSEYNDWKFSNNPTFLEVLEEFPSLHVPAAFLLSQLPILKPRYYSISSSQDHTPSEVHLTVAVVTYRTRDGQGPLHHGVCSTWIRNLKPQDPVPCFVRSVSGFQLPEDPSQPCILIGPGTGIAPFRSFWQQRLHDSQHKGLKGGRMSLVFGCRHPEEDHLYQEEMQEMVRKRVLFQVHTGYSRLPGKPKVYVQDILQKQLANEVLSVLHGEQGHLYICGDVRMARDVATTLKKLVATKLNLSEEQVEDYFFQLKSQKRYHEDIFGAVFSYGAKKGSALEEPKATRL

[24] = Reduction of intraocular pressure in human at 0.024%, OU administered once daily and measured at 12 pm time point after 3 months by tonometry; assay type: functional; details: 2190 h
[25] = Reduction of intraocular pressure in human at 0.024%, OU administered once daily and measured at 8 am time point after 3 months by tonometry; assay type: functional; details: 2190 h
[26] = Reduction of intraocular pressure in human at 0.024%, OU administered once daily and measured at 12 pm time point after 6 weeks by tonometry; assay type: functional
[27] = Reduction of intraocular pressure in human at 0.024% administered topically to eye once daily and measured after 7 day during phase2 clinical trial by tonometry; assay type: functional
[28] = Reduction of intraocular pressure in human at 0.024%, OU administered once daily and measured at 12 pm time point after 2 weeks by tonometry; assay type: functional
[29] = Reduction of intraocular pressure in human at 0.024%, OU administered once daily and measured at 4 pm time point after 6 weeks by tonometry; assay type: functional
[30] = Reduction of intraocular pressure in human at 0.024%, OU administered once daily and measured at 4 pm time point after 3 months by tonometry; assay type: functional; details: 2190 h
[31] = Reduction of intraocular pressure in human at 0.024%, OU administered once daily and measured at 8 am time point after 6 weeks by tonometry; assay type: functional
[32] = Reduction of intraocular pressure in human at 0.024%, OU administered to fellow-eye once daily for 14 days and measured for 24 hrs on day 14 by tonometry; assay type: functional; details: time 14 day
[33] = Reduction of intraocular pressure in human at 0.024% administered topically to eye once daily and measured after 28 day during phase2 clinical trial by tonometry; assay type: functional
[34] = Reduction of intraocular pressure in human at 0.024% administered topically to eye once daily for 4 weeks and measured for 8 hrs during nocturnal/sleep period by tonometry; assay type: functional
[35] = Reduction of intraocular pressure in human at 0.024%, OU administered once daily and measured at 1 year by tonometry; assay type: functional; details: 8760 h
[36] = Reduction of intraocular pressure in human at 0.024%, OU administered once daily and measured at 4 pm time point after 2 weeks by tonometry; assay type: functional
[37] = Reduction of intraocular pressure in human at 0.024%, OU administered once daily and measured at 4 weeks by tonometry; assay type: functional
[38] = Reduction of intraocular pressure in human at 0.024%, OU administered once daily and measured at 8 am time point after 2 weeks by tonometry; assay type: functional
[39] = Reduction of intraocular pressure in human at 0.024% administered topically to eye once daily for 4 weeks and measured for 8 hrs during diurnal/wake period by tonometry; assay type: functional
[40] = Reduction of intraocular pressure in human at 0.024% administered topically to eye once daily and measured after 14 day during phase2 clinical trial by tonometry; assay type: functional
[41] = Reduction of intraocular pressure in human at 0.024%, OU administered once daily for 14 days and measured for 24 hrs on day 14 by tonometry; assay type: functional; details: time 14 day
[42] = tested on: Rattus norvegicus; experiment: Neuroprotective activity in Wistar rat model of streptozotocin-induced diabetic retinopathy assessed as decrease in retinal ganglion cells at 1 mg/kg, po dosed until 2 months starting 7 days prior to streptozotocin injection (reference value: 44%); assay type: functional; set-up: scale not given: the % may be the effect or the level left; details: 1460 h
[43] = tested on: Rattus norvegicus; experiment: Neuroprotective activity in Wistar rat model of streptozotocin-induced diabetic retinopathy assessed as decrease in retinal ganglion cells at 5 mg/kg, po dosed until 2 months starting 7 days prior to streptozotocin injection (reference value: 44%); assay type: functional; set-up: scale not given: the % may be the effect or the level left; details: 1460 h

SMILES: CCCCCCOc1cc(NC(=O)N[C@@H](C)c2ccccc2)ccc1OC
- solubility thermodynamic at 16 h [1]: < 4 µM
- IC50 [2]: 210 nM

SMILES: COc1ccc(NC(=O)N[C@@H](C)c2ccccc2)cc1OCCCC(C)C
- solubility thermodynamic at 16 h [1]: < 4 µM
- IC50 [2]: 440 nM

SMILES: CC(N)c1ccc(C(=O)Nc2ccnc3[nH]ccc23)cc1 (configuration not stated)
- Activity [3]: 3 mmHg

SMILES: C[C@H]1CNCCCN1S(=O)(=O)c1cccc2cncc(F)c12
- Activity [4]: -2.7 mmHg
- Activity [5]: 1.6 mmHg
- Activity [6]: -3.2 mmHg
- Activity [7]: 1.4 mmHg
- Activity [8]: -2.6 mmHg
- Activity [9]: 0.9 mmHg
- Activity [10]: -3.7 mmHg
- Activity [11]: -3.1 mmHg

SMILES: NC(=O)c1nn(CC(=O)N2[C@@H]3C[C@@H]3C[C@H]2C(=O)Nc2cccc(Br)n2)c2ncccc12
- IC50 [12]: 50 nM

SMILES: COC(=O)c1ccccc1CNC(=O)N1CCC[C@H]1C(=O)Nc1cccc(OC(F)(F)F)c1
- IC50 [14]: 9000 nM

SMILES: C[C@H](NC(=O)[C@@H]1C[C@H]2C[C@H]2N1C(=O)Cn1nc(C(N)=O)c2cccnc21)c1cccc(Cl)c1F
- IC50 [12]: 140 nM
- IC50 [22]: 70 nM

SMILES: O=C(CCC/C=C\C[C@@H]1[C@@H](CC[C@@H](O)CCc2ccccc2)[C@H](O)C[C@@H]1O)OC(CO[N+](=O)[O-])CO[N+](=O)[O-]
- IC50 [23]: 55000 nM

SMILES: COc1ccc(NC(=O)N[C@@H](C)c2ccccc2OC)cc1OCCCC(C)C
- solubility thermodynamic at 16 h [1]: ≤ 4 µM
- IC50 [2]: ≤ 5 nM

SMILES: O=C(CCC/C=C\C[C@@H]1[C@@H](CC[C@H](O)CCc2ccccc2)[C@H](O)C[C@@H]1O)OCCCCO[N+](=O)[O-]
- Activity [24]: 1.3 mmHg
- Activity [25]: 0.9 mmHg
- Activity [26]: 0.8 mmHg
- Activity [27]: 8.3 mmHg
- Activity [28]: 0.8 mmHg
- Activity [29]: 1 mmHg
- Activity [30]: 1.3 mmHg
- Activity [31]: 0.9 mmHg
- Activity [32]: 3.5 mmHg
- Activity [33]: 9 mmHg
- Activity [34]: 2.3 mmHg
- Activity [35]: 5.3 mmHg
- Activity [36]: 0.7 mmHg
- Activity [37]: 4.3 mmHg
- Activity [38]: 0.4 mmHg
- Activity [39]: 1.1 mmHg
- Activity [40]: 8.9 mmHg
- Activity [41]: 3.6 mmHg

SMILES: OCCc1ccc(O)c(O)c1 [HYDROXYTYROSOL]
- Activity [42]: 34%
- Activity [43]: 9%

Results, then the compound that gave them:

- solubility [13]: 2000 µM (≈ 621 µg/mL)
SMILES: NC(=O)c1cc2cc(OCc3cccc(C(=O)O)c3)ccc2[nH]1

- solubility [13]: 30 µM (≈ 7.99 µg/mL)
- Kd [15]: > 30000 nM
SMILES: NC(=O)c1cc2cc(OCc3ccccc3)ccc2[nH]1

- t1/2 [16]: 2.6 h
- t1/2 [17]: 1.63 h
- t1/2 [18]: 2.92 h
- t1/2 [19]: 1.82 h
- t1/2 [20]: 2.33 h
SMILES: Cc1ccc(C(=O)OCc2ccc([C@@H](CN)C(=O)Nc3ccc4cnccc4c3)cc2)c(C)c1

- IC50 [21]: > 30000 nM
- IC50 [14]: 700 nM
SMILES: COc1ccc(CCNC(=O)[C@@H]2CCCN2C(=O)NCc2cccc3ccccc23)cc1

- solubility thermodynamic at 16 h [1]: 728 µM (≈ 302 µg/mL)
- IC50 [2]: 620 nM
SMILES: COc1cc(C(=O)O)c(NC(=O)N[C@@H](C)c2ccccc2)cc1OCCCC(C)C
